Data taken from patent publication US20260151403A1, “NEK7 DEGRADERS AND METHODS OF USE THEREOF” (Captor Therapeutics S.A., priority 2022, published 2026).

How the values were obtained:
[1] = biological target: T1, [NEK7]-[compound of formula (I)]-[CRBN/DDB1] complex (Homo sapiens, UniProt Q8TDX7+Q96SW2); assay: AlphaLISA dose response ternary complex formation assay; assay type: binding; details: 1 μM compound; normalized to maximum signal of Compound 2 (positive control) and DMSO background; read-out: Normalized AlphaLISA ternary complex average signal at 1 μM molecule
T1 sequence (Q8TDX7 whole entry): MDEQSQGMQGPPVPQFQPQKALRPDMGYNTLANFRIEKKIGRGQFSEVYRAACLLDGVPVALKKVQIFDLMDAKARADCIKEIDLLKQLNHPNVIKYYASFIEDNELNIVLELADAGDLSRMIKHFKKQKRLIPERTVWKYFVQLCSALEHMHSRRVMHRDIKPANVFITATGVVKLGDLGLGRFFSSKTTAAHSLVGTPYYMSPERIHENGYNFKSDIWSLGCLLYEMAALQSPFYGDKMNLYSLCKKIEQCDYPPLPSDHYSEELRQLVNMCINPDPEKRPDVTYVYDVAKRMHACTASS
T1 sequence (Q96SW2 whole entry): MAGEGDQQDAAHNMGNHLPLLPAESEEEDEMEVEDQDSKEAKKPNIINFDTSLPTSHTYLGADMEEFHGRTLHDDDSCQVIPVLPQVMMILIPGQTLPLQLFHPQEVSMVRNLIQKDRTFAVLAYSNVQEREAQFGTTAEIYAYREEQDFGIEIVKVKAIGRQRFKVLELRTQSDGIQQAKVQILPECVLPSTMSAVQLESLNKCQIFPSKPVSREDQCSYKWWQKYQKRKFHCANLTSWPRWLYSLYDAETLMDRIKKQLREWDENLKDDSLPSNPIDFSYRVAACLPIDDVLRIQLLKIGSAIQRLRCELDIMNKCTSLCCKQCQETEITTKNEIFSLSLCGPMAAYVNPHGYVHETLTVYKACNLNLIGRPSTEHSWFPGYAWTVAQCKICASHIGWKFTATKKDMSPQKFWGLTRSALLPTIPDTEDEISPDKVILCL
T1 sequence (Q16531 whole entry partner): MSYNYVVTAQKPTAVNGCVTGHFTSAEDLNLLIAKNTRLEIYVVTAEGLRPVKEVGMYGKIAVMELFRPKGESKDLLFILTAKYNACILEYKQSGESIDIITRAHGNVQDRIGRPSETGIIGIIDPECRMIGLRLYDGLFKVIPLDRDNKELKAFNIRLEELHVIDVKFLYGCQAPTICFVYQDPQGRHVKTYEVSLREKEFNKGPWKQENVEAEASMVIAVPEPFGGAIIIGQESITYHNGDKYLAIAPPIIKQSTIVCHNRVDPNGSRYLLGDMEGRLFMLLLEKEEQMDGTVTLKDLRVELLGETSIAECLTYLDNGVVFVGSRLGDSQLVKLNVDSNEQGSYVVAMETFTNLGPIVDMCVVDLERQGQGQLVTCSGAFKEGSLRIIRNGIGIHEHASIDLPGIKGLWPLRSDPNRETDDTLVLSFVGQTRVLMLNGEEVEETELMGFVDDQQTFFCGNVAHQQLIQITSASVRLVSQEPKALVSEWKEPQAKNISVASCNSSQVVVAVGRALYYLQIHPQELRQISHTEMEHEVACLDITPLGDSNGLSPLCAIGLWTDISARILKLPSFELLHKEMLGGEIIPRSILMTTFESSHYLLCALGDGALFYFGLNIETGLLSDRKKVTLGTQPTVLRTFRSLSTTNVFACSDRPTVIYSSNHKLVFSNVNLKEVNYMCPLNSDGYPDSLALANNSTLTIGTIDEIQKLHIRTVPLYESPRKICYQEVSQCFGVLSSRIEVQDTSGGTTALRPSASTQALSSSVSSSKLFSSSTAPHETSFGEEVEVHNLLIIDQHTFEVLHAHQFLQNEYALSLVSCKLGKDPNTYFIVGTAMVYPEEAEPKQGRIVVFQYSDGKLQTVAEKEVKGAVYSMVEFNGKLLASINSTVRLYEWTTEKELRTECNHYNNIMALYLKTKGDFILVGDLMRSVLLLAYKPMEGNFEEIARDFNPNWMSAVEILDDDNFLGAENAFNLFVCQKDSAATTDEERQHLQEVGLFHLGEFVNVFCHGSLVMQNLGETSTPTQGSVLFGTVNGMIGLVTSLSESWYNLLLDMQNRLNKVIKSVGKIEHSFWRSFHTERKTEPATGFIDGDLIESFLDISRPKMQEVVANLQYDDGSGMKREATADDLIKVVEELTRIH
Experimental: The effect of the molecular glue compounds of the invention on the formation of a ternary complex composed of [NEK7]-[compound of formula (I)]-[CRBN/DDB1] was investigated with two methods: AlphaLISA dose response assay or HTRF ternary complex assay.
Two types of protein solution were prepared: • 200 nM biotinylated NEK7, 40 μg/ml AlphaScreen Streptavidin-coated Donor Beads in HBS (10 mM HEPES, 150 mM NaCL, pH 7.4) buffer with 0.1% Tween-20 and 1 mM DTT, • 200 nM 6×His-CRBN/Strep-DDB1, 40 μg/ml AlphaLISA Anti-6×His Acceptor beads in HBS buffer with 0.1% Tween-20 and 1 mM DTT.
The prepared solutions were incubated at room temperature for 30 min and then the solution containing the donor beads was mixed with the solution containing the acceptor beads.
The tested compounds were dispensed onto a white 384-well AlphaPlate 384 SW. DMSO was backfilled to all wells, resulting in a final DMSO content of 2%. Wells containing only DMSO served as background. Next, 10 μl of solution with donor and acceptor beads was added to the wells.
The plate was sealed with transparent film and shaken using a VibroTurbulator for 60 sec at room temperature, level 3. The plate was then spun down shortly (10 s, 1000 rcf, room temperature) and incubated at 25° C. for 30 min.
The read-out was performed with PerkinElmer Enspire Multimode Plate Reader (method for AlphaLISA 384-well low volume, Filterset: λexc=680 nm, λem=615 nm).
The results were analyzed as follows: • 1) an average of luminescence for background signal was calculated and used as a negative control; • 2) average of the maximum measured luminescence for Compound 2 was calculated and used as an internal positive control; • 3) raw luminescence values were normalized against positive and negative controls; • 4) Normalized responses to Compound 2 were determined.

[2] = biological target: T1, [NEK7]-[compound of formula (I)]-[CRBN/DDB1] complex; assay: HTRF ternary complex assay; assay type: binding; details: dose-response, 180 min at 25° C.; read-out: HTRF ternary complex Average pEC50 by molecule (converted)
Experimental: The effect of the molecular glue compounds of the invention on the formation of a ternary complex composed of [NEK7]-[compound of formula (I)]-[CRBN/DDB1] was investigated.
Mix solution of proteins and reagents was prepared: • 24 nM NEK7, 52.8 nM 6×His-CRBN/Strep-DDB1, 3 nM of Streptavidin-Eu cryptate […] and 6.67 nM of Anti-6×his-d2 […] was prepared in PPI Europium detection buffer (Cisbio) with 1 mM DTT.
The tested compounds in dose-response were dispensed onto a white 384-well low volume plate (Greiner, 784075). DMSO was backfilled to all wells, resulting in a final DMSO content of 0.5%. Wells containing only DMSO served as background.
The plate was sealed with transparent film and shaken using a VibroTurbulator for 60 sec at level 3.
The plate was then spun down shortly (10 s, 1000 rcf) and incubated at 25° C. for 180 min.
The read-out was performed with plate reader (Pherastar, BMG Labtech) in time resolved fluorescence mode. Filterset: TR 337 665 620.
The results were analyzed as follows: • 1) an average of fluorescence for background signal was calculated and used as a negative control; • 2) raw fluorescence values for tested compounds were normalized against negative controls; • 3) saturation curve was fitted to specific binding with Hill slope model; • 4) EC50 and pEC50 values were determined.

NEK7-HiBiT protein = NEK7-HiBiT protein (Homo sapiens, UniProt Q8TDX7); assay: NEK7-HiBiT degradation assay (Nano-Glo HiBiT Lytic Assay) in HEK293 NEK7-HiBiT cells; assay type: cell-based; details: 24 h, conc. 0.1, 1 and 10 μM tested, concentration of the table values not stated, mean of 3 technical replicates
NEK7-HiBiT protein, sequence (Q8TDX7 whole entry): as the sequence (Q8TDX7 whole entry) above
NEK7-HiBiT protein, sequence (Q96SW2 whole entry, further chain): as the sequence (Q96SW2 whole entry) above
NEK7-HiBiT protein, sequence (Q16531 whole entry partner): as the sequence (Q16531 whole entry partner) above
Experimental: HEK293 NEK7-HiBiT cells were generated using CRISPR-Cas9 system. HEK293 cells were transformed with pSpCas9-BB-2A-Puro v2.0 plasmid carrying gRNA targeting the N-terminus of NEK7 and ssODN template containing the HiBiT tag sequence with flanking homology sequences. Neon Transfection System (Thermo Fisher Scientific) was used for electroporation. HEK293 NEK7-HiBiT cells were cultured with DMEM Glutamax (Gibco) supplemented with 10% heat inactivated FBS (Gibco). After transfection the culture medium was changed to DMEM Glutamax with 10% heat-inactivated FBS and 1% Penicillin-Streptomycin (Biowest) supplemented with Puromycin (2 μg/ml; Invivogen) for clonal selection. In order to isolate single cell clones for further validation and analysis, limiting dilution cloning in 96-well plates was performed. When the single clones reached confluency, HiBiT Lytic Assay (Promega) was performed in order to identify HiBiT positive clones. The clone selected for further studies was verified and validated using genotyping and HiBiT Blotting (Promega).
Selected clone of HEK293 NEK7-HiBiT cells was maintained in the DMEM-Glutamax medium supplemented with 10% of heat-inactivated FBS (Gibco) and 1% of Penicillin-Streptomycin Solution 100x (Biowest) at 37° C., 5% CO2 and subcultured every 2-3 days.
For Nano-Glo HiBiT Lytic Assay HEK293 NEK7-HiBiT cells were seeded at the density 2×10^3 cells in triplicates in the 40 μL of growth medium per single well on 384 well plate (Greiner Bio-One). Compounds or DMSO were added to treatment plates using Echo555 Liquid Handler and incubated at 37° C., 5% CO2 for 24 hours. After incubation 40 μL of Nano-Glo HiBiT Lytic Reagent (prepared according to the manufacturer protocol) were added to 40 μL of the cell culture medium present in each well. The plate content was briefly mixed (460 rpm) on an orbital shaker to ensure cell lysis. The plate was left at RT protected from light for another 10 min to stabilize the luminescent signal. The luminescence signal was measured using CLARIOstar Multimode Plate Reader. Focus and gain were adjusted to DMSO treated cells. The results were calculated as the NEK7-HiBiT % relative to the DMSO control of 3 technical replicates relative to the DMSO control.
HEK293 NEK7-HiBiT cells were treated with the compounds (conc. 0.1, 1 and 10 μM) or DMSO for 24 h. After incubation with compounds NEK7-HiBiT degradation was measured as a luminescence signal using CLARIOstar Multimode Plate reader.
Additionally, compounds reducing NEK7-HiBiT protein level by >=50% at 0.1 μM, were also identified.

SMILES | activation at 1 µM [1] [%] | EC50 [2] [µM] | Levels of NEK7-HiBiT Protein (as a % of DMSO control) (NEK7-HiBiT protein)
COc1ccc(-c2ccc3c(c2)CN(C2CCC(=O)NC2=O)C3=O)nc1 (stereo not drawn) [25(2), 3-(5-(5-methoxypyridin-2-yl)-1-oxoisoindolin-2-yl)piperidine-2,6-dione] | > 80 | 0.1 to 0.316 | A (Levels of NEK7-HiBiT Protein ≤ 25%)
O=C1CCC(N2Cc3cc(-c4cc(C(F)(F)F)ccn4)ccc3C2=O)C(=O)N1 (stereo not drawn) [26(2), 3-(1-oxo-5-(4-(trifluoromethyl)pyridin-2-yl)isoindolin-2-yl)piperidine-2,6-dione] | 20 to 80 | 0.316 to 1 | C (Levels of NEK7-HiBiT Protein > 50% and <75%)
COc1ccnc(-c2ccc3c(c2)CN(C2CCC(=O)NC2=O)C3=O)c1 (stereo not drawn) [27(2), 3-(5-(4-methoxypyridin-2-yl)-1-oxoisoindolin-2-yl)piperidine-2,6-dione] | 20 to 80 | 0.316 to 1 | D (Levels of NEK7-HiBiT Protein ≥ 75%)
O=C1CCC(N2C(=O)c3cccc4c(-c5ccccn5)ccc2c34)C(=O)N1 (stereo not drawn) [28(2), 3-(2-oxo-6-(pyridin-2-yl)benzo[cd]indol-1 (2H)-yl)piperidine-2,6-dione] | < 10 | > 3.16 | C (Levels of NEK7-HiBiT Protein > 50% and <75%)
O=C1CCCC(N2Cc3cc(-c4ccccn4)ccc3C2=O)C(=O)N1 (stereo not drawn) [29(2), 3-(1-oxo-5-(pyridin-2-yl)isoindolin-2-yl)azepane-2,7-dione] | < 10 | > 3.16 | D (Levels of NEK7-HiBiT Protein ≥ 75%)
O=C1CCC(N2Cc3cc(-c4ccccn4)sc3C2=O)C(=O)N1 (stereo not drawn) [30(2), 3-(6-oxo-2-(pyridin-2-yl)-4,6-dihydro-5H-thieno[2,3-c]pyrrol-5-yl)piperidine-2,6-dione] | < 10 | > 3.16 | D (Levels of NEK7-HiBiT Protein ≥ 75%)
O=C1CCC(N2Cc3c(csc3-c3ccccn3)C2=O)C(=O)N1 (stereo not drawn) [31(2), 3-(4-oxo-1-(pyridin-2-yl)-4H-thieno[3,4-c]pyrrol-5 (6H)-yl)piperidine-2,6-dione] | < 10 | > 3.16 | D (Levels of NEK7-HiBiT Protein ≥ 75%)
O=C1CCC(N2C(=O)c3ccc(C4CCCCN4)cc3C2=O)C(=O)N1 (stereo not drawn) [Compound 1, 2-(2,6-dioxopiperidin-3-yl)-5-(piperidin-2-yl)isoindoline-1,3-dione] | 20 to 80 | 1 to 3.16 | A (Levels of NEK7-HiBiT Protein ≤ 25%)
O=C1CCC(N2Cc3cc([C@@H]4CCCCN4)ccc3C2=O)C(=O)N1 (stereo partly drawn) [Compound 10, 3-(1-oxo-5-((S)-piperidin-2-yl)isoindolin-2-yl)piperidine-2,6-dione] | 10 to 20 | 0.316 to 1 | C (Levels of NEK7-HiBiT Protein > 50% and <75%)
O=C1CCC(N2Cc3cc(C4CCCC(=O)N4)ccc3C2=O)C(=O)N1 (stereo not drawn) [Compound 42, 3-(1-oxo-5-(6-oxopiperidin-2-yl)isoindolin-2-yl)piperidine-2,6-dione] | < 10 | > 3.16 | D (Levels of NEK7-HiBiT Protein ≥ 75%)
O=C1CCC(N2Cc3cc(C4CCC(NC(=O)c5ccccc5)CN4)ccc3C2=O)C(=O)N1 (stereo not drawn) [Compound 56, N-(6-(2-(2,6-dioxopiperidin-3-yl)-1-oxoisoindolin-5-yl)piperidin-3-yl)benzamide] | > 80 | < 0.1 | A (Levels of NEK7-HiBiT Protein ≤ 25%)

Next, values leading:

activation at 1 µM [1] [%] | EC50 [2] [µM] | Levels of NEK7-HiBiT Protein (as a % of DMSO control) (NEK7-HiBiT protein) | SMILES
20 to 80 | 0.316 to 1 | A (Levels of NEK7-HiBiT Protein ≤ 25%) | O=C1CCC(N2Cc3cc(C4CCCN4)ccc3C2=O)C(=O)N1 (stereo not drawn) [Compound 6, 3-(1-oxo-5-(pyrrolidin-2-yl)isoindolin-2-yl)piperidine-2,6-dione]
> 80 | 0.316 to 1 | A (Levels of NEK7-HiBiT Protein ≤ 25%) | O=C1CCC(N2Cc3cc([C@H]4CCCCN4)ccc3C2=O)C(=O)N1 (stereo partly drawn) [Compound 9, 3-(1-oxo-5-((R)-piperidin-2-yl)isoindolin-2-yl)piperidine-2,6-dione]
< 10 | > 3.16 | D (Levels of NEK7-HiBiT Protein ≥ 75%) | Cc1cc2c(cc1C1CCCCN1)CN(C1CCC(=O)NC1=O)C2=O (stereo not drawn) [Compound 20, 3-(6-methyl-1-oxo-5-(piperidin-2-yl)isoindolin-2-yl)piperidine-2,6-dione]
< 10 | > 3.16 | D (Levels of NEK7-HiBiT Protein ≥ 75%) | Cc1cc(C2CCCCN2)cc2c1C(=O)N(C1CCC(=O)NC1=O)C2 (stereo not drawn) [Compound 21, 3-(7-methyl-1-oxo-5-(piperidin-2-yl)isoindolin-2-yl)piperidine-2,6-dione]
< 10 | > 3.16 | A (Levels of NEK7-HiBiT Protein ≤ 25%) | O=C1CCC(N2Cc3c(ccc(C4CCCCN4)c3F)C2=O)C(=O)N1 (stereo not drawn) [Compound 22, 3-(4-fluoro-1-oxo-5-(piperidin-2-yl)isoindolin-2-yl)piperidine-2,6-dione]
< 10 | > 3.16 | D (Levels of NEK7-HiBiT Protein ≥ 75%) | O=C1CCC(N2Cc3cc(C4CCCCN4)cc(F)c3C2=O)C(=O)N1 (stereo not drawn) [Compound 24, 3-(7-fluoro-1-oxo-5-(piperidin-2-yl)isoindolin-2-yl)piperidine-2,6-dione]
